In patent US5481021A, “Phenyl amidines derivatives useful as platelet aggregation inhibitors” (G. D. Searle & Co., priority 1994, dated 1996):
Structures can show the parent of a compound that is named as a salt.

How the values were obtained:
[1] = system: Platelet aggregation in dog PRP; test: In-Vitro Platelet Aggregation in PRP (ADP induced); type: cell-based; settings: Canis lupus familiaris; for IC50: ADP 50 μm, 37° C.; for inhibition at 10 µM: ADP, test concentration 1 × 10^-5
Procedure: In-Vitro Platelet Aggregation in PRP
(§1) Healthy male or female dogs were fasted for 8 hours prior to drawing blood; then 30 ml whole blood was collected using a butterfly needle and 30 cc plastic syringe with 3 ml of 0.129M buffered sodium citrate (3.8%). The syringe was rotated carefully as blood was drawn to mix the citrate. Platelet-rich plasma (PRP) was prepared by centrifugation at 975×g for 3.17 minutes at room temperature, allowing the centrifuge to coast to a stop without braking. The PRP was removed from the blood with a plastic pipette and placed in a plastic capped, 50 ml Corning conical sterile centrifuge tube which was held at room temperature. Platelet poor plasma (PPP) was prepared by centrifuging the remaining blood at 2000×g for 15 minutes at room temperature allowing the centrifuge to coast to a stop without braking. The PRP was adjusted with PPP to a count of 2-3×10^8 platelets per ml. 400 for 5-(p-cyanophenyl)pentanoic acid in Section C of Example 1.
as §1, with “400 μl of the PRP preparation and 50 μl of the compound to be tested or saline were preincubated” for “400”, “1 minute at 37° C.” for “5-(p-cyanophenyl)pentanoic acid”, “a BioData aggregometer (BioData, Horsham, Pa.). 50 μl” for “Section C”, “adenosine 5'diphosphate (ADP) (50 μm final concentration) was added to the cuvettes and the aggregation was monitored for 1 minute. All compounds are tested in duplicate. Results are calculated as follows:” for “Example 1.”
Percent of control=[(maximal OD minus initial OD of compound) divided by
(maximal OD minus initial OD of control saline)]×100. The %
inhibition=100-(percent of control).

[2] = molecular target: T1, fibrinogen binding to platelets (gpIIb/IIIa) (Homo sapiens, UniProt P05106+P08514); test: Fibrinogen Binding Assay (125I-fibrinogen binding to ADP-activated platelets); settings: ADP 10 μM, 125I-fibrinogen 0.3 μM, 40 min at 37° C., read-out: Human Fg binding IC50
T1 construct: endogenous in cells
Procedure: Fibrinogen binding was performed essentially as described by Plow et al., Blood 70, 110-115 (1987). Briefly, blood from humans who had not been given any antiplatelet drugs in the previous two weeks was collected into 1/10th volume of CCD buffer (100 mM sodium citrates, 136 mM glucose, pH 6.5). The blood was centrifuged for 3 min at 1000×g and platelet rich plasma was transferred to a plastic tube with a plastic pipet and placed on ice. After 15 minutes, 1/2 volume of ice cold CCD buffer was added and the sample was centrifuged at 900×g for 10 min at 2° C. The supernatant was decanted and the platelet pellet was gently resuspended in 1/2 the original volume of ice cold modified Tyrode's buffer (137 mM NaCl, 2.6 mM KCl, 12 mM NaHCO3, 5.5 mM glucose, 15 mM HEPES, 0.5% BSA, pH 7.4). After incubating for 30 minutes at 37° C., the platelet count was adjusted to 4×10^8 platelets/ml with modified Tyrode's buffer. To test samples (final concentration=1×10^8 platelets/ml) were added in sequence: ADP (10 μM), CaCl2 (2 mM), test compound, and ^125 I-fibrinogen (0.3 μM) to the aforesaid final concentrations in a volume of 200 μl. The samples were incubated for 40 min at 37° C. and 50 μl aliquots were centrifuged at 8,000×g through a 20% sucrose solution (400 μl). The tubes were quick frozen and the tips containing the platelet pellet were cut and assayed for bound ^125 I-fibrinogen by gamma scintillation counting. Specific binding was determined in each test by subtracting from the total binding the amount of ^125 I-fibrinogen bound in the presence of a 60-fold excess of unlabeled fibrinogen.

[3] = system: ex vivo collagen induced platelet aggregation; test: Inhibition of ex vivo collagen induced aggregation; type: in vivo, dog (Beagle); settings: dog, IV
Procedure: INHIBITION OF EX VIVO COLLAGEN INDUCED AGGREGATION BY COMPOUNDS OF THE INVENTION
PURPOSE--The purpose of this assay is to determine the effects of antiplatelet compounds on ex vivo collagen induced platelet aggregation when administered either intravenously or orally to dogs.
Pretreatment (control) blood samples are drawn from either conscious or anesthetized dogs (Beagles) and centrifuged to prepare platelet rich plasma (PRP). Aggregatory response to collagen is measured in an aggregometer and used as Control. Compounds are administered, either intragasterically (either by capsule or stomach tube or intravenously. Blood samples are drawn at predetermined intervals after compound administration, PRP prepared and aggregation to collagen determined. Compound inhibition of aggregation is determined by comparing the aggregation response after compound administration to the pretreatment response. The study is continued for a maximum of 24 hours or until the platelet aggregation returns to control levels. (If aggregation is still inhibited after 7 hours, a blood sample is drawn the following morning and tested.) Duration of activity is determined by the length of time platelet aggregation is inhibited after compound administration.

[4] = Canine intravenous infusion model; type: in vivo

T1 sequence (P08514 32-887 limits assumed): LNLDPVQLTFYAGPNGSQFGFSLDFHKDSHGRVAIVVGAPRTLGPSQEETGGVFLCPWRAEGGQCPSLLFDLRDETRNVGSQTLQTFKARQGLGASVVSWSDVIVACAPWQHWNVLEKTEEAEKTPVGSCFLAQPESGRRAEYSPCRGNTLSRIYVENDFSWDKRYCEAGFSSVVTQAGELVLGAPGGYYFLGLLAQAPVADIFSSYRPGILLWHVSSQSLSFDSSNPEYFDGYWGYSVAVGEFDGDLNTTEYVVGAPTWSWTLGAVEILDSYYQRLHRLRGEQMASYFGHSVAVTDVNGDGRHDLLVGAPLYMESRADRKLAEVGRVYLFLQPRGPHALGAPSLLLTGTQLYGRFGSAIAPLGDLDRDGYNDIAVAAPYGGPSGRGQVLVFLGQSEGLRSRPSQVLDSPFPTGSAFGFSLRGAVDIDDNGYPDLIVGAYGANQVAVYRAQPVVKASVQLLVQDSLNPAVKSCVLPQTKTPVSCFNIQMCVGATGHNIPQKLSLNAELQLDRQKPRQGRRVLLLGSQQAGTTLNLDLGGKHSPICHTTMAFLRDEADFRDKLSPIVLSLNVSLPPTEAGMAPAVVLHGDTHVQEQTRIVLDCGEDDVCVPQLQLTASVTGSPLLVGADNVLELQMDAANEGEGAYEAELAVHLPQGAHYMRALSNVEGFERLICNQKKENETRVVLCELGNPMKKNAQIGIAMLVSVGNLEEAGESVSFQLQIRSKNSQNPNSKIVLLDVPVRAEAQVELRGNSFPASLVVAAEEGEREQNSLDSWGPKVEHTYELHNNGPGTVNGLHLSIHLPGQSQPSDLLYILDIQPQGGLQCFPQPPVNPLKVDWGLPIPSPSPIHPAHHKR
T1 sequence (P08514 891-1039 partner limits assumed): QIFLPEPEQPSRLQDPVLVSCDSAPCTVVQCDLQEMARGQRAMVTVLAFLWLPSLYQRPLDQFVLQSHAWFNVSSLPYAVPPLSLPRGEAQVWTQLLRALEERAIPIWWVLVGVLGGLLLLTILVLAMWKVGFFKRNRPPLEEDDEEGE
T1 sequence (P05106 27-788): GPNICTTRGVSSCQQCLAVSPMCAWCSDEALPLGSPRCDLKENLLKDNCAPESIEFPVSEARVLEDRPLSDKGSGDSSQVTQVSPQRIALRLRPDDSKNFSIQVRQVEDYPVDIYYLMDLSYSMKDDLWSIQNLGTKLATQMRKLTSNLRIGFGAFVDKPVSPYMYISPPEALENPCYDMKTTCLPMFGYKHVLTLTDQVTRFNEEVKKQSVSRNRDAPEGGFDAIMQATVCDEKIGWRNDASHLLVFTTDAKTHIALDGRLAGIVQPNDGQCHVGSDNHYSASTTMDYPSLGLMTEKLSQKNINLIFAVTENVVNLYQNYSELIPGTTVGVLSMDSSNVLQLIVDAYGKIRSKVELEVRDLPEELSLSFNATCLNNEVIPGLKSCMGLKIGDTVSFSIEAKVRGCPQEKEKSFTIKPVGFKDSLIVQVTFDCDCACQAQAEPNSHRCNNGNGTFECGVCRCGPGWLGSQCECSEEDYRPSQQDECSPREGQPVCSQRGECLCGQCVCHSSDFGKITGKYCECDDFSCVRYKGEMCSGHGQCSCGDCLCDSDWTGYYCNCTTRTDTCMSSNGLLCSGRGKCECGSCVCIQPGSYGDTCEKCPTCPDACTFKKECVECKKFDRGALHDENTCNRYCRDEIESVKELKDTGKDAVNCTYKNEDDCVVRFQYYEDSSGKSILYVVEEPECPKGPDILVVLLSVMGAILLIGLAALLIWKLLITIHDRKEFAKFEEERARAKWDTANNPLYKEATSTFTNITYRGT

Row | SMILES | IC50 [1] [nM] | inhibition at 10 µM [1] [%] | IC50 [2] [nM] | Ex-vivo collagen induced aggregation, Max % Inhibition ([3]; 0.003 mg/kg) [%] | Ex-vivo collagen induced aggregation, Max % Inhibition ([3]; 0.006 mg/kg) [%] | Ex-vivo collagen induced aggregation, Max % Inhibition ([3]; 0.005 mg/kg) [%] | Ex-vivo collagen induced aggregation, Max % Inhibition ([3]; 0.01 mg/kg) [%] | Ex-vivo collagen induced aggregation, Max % Inhibition ([3]; 0.1 mg/kg) [%] | ED50 [4] [µg/kg/min]
1 | N=C(N)c1ccc(CCCCC(=O)N[C@@H](CC(=O)O)C(=O)NCCc2ccccc2)cc1 [3 S-[[5-[4-(aminoiminomethyl)phenyl]-1-oxopentyl]amino]-4-oxo-4-[(2-phenylethyl)amino]butanoic acid] | 1900 | 100 | 200 |  |  |  |  |  | 
2 | N=C(N)c1ccc(CCCCC(=O)N[C@@H](CC(=O)O)C(=O)N[C@@H](Cc2ccccc2)C(=O)O)cc1 [N-[N-[5-[4-aminoiminomethyl)phenyl-1-oxopentyl]-L-α-aspartyl]-L-phenylalanine, acetate salt] | 53 | 100 | 8.3 | 31 | 84 |  |  |  | 
3 | N=C(N)c1ccc(C#CCCC(=O)N[C@@H](CC(=O)O)C(=O)N[C@@H](Cc2ccccc2)C(=O)O)cc1 [N-[5-[4-(aminoiminomethyl)phenyl]-1-oxo-4-pentynyl]-N-L-α-aspartyl-L-phenylalanine] | 90 | 100 | 6 |  |  | 29 | 83 | 100 | 
4 | N=C(N)c1ccc(CCCCC(=O)N[C@@H](CC(=O)O)C(=O)N[C@@H](Cc2ccccc2)C(=O)O)cc1 [N-[N-[5-[4-(aminoiminomethyl)phenyl]-1-oxopentyl]-L-α-aspartyl]-L-phenylalanine] |  |  |  |  |  |  |  |  | 0.32
